Values of other authors in US20260271921A1, “DILUTION-INDUCED RELEASE COMPOSITIONS AND METHODS OF USE THEREOF” (priority 2025, published 2026).

CCN(CC)c1ccc2nc3c4ccccc4c(=O)cc-3oc2c1 [Nile Red]
logP: 3.65
